In the supplement of paper PMC10307832:

Columns and labels:
Experiment in all cases: relative viability (nuclei count vs DMSO), 5 days (fraction); higher = more cells survive
ABC-1 = system: ABC-1
Method in brief: (§1)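 One day after seeding in 1536-well plates, lung cancer cell lines were dosed by pin tool. Dosing was either single-drug or a fixed anchor-drug dose plus five library-drug doses (not always all listed) in √10 steps. After 5 days, nuclei were stained in one fix-and-stain step and counted on 4× images, and relative viability is the nuclei count of treated wells over that of vehicle wells, given as the median of duplicate plates.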

CAL-12T = system: CAL-12T
Method in brief: as §1

COR-L23 = system: COR-L23
Method in brief: as §1

EMC-BAC-2 = system: EMC-BAC-2
Method in brief: as §1

HARA = system: HARA
Method in brief: as §1

HCC-366 = system: HCC-366
Method in brief: as §1

HOP-62 = system: HOP-62
Method in brief: as §1

LK-2 = system: LK-2
Method in brief: as §1

NCI-H1437 = system: NCI-H1437
Method in brief: as §1

NCI-H1563 = system: NCI-H1563
Method in brief: as §1

NCI-H1650 = system: NCI-H1650
Method in brief: as §1

NCI-H1651 = system: NCI-H1651
Method in brief: as §1

NCI-H1734 = system: NCI-H1734
Method in brief: as §1

NCI-H1755 = system: NCI-H1755
Method in brief: as §1

NCI-H2347 = system: NCI-H2347
Method in brief: as §1

NCI-H3122 = system: NCI-H3122
Method in brief: as §1

NCI-H441 = system: NCI-H441
Method in brief: as §1

NCI-H596 = system: NCI-H596
Method in brief: as §1

NCI-H727 = system: NCI-H727
Method in brief: as §1

PC-3 [JPC-3] = system: PC-3 [JPC-3]
Method in brief: as §1

RERF-LC-KJ = system: RERF-LC-KJ
Method in brief: as §1

SK-LU-1 = system: SK-LU-1
Method in brief: as §1

UMC-11 = system: UMC-11
Method in brief: as §1

## Cc1csc(=NC2CCCCC2)n1/N=C/c1ccc(O)c(O)c1O [MIM1] + C[C@@H](Oc1cc(-c2cnn(C3CCNCC3)c2)cnc1N)c1c(Cl)ccc(F)c1Cl [Crizotinib] (partner 1 µM)
ABC-1; first compound 0.2 µM
  relative viability: 1.08
ABC-1; first compound 0.6325 µM
  relative viability: 1.22
ABC-1; first compound 2 µM
  relative viability: 0.846
ABC-1; first compound 6.325 µM
  relative viability: 0.286
ABC-1; first compound 20 µM
  relative viability: 0.226
CAL-12T; first compound 0.2 µM
  relative viability: 0.596
CAL-12T; first compound 0.6325 µM
  relative viability: 0.676
CAL-12T; first compound 2 µM
  relative viability: 0.515
CAL-12T; first compound 6.325 µM
  relative viability: 0.438
CAL-12T; first compound 20 µM
  relative viability: 0.283
COR-L23; first compound 0.2 µM
  relative viability: 0.571
COR-L23; first compound 0.6325 µM
  relative viability: 0.621
COR-L23; first compound 2 µM
  relative viability: 0.657
COR-L23; first compound 6.325 µM
  relative viability: 0.461
COR-L23; first compound 20 µM
  relative viability: 0.372
EMC-BAC-2; first compound 0.2 µM
  relative viability: 0.708
EMC-BAC-2; first compound 0.6325 µM
  relative viability: 0.774
EMC-BAC-2; first compound 2 µM
  relative viability: 0.784
EMC-BAC-2; first compound 6.325 µM
  relative viability: 0.628
EMC-BAC-2; first compound 20 µM
  relative viability: 0.196
HARA; first compound 0.2 µM
  relative viability: 1.06
HARA; first compound 0.6325 µM
  relative viability: 1.13
HARA; first compound 2 µM
  relative viability: 1.08
HARA; first compound 6.325 µM
  relative viability: 0.997
HARA; first compound 20 µM
  relative viability: 0.138
HCC-366; first compound 0.2 µM
  relative viability: 0.552
HCC-366; first compound 0.6325 µM
  relative viability: 0.483
HCC-366; first compound 2 µM
  relative viability: 0.326
HCC-366; first compound 6.325 µM
  relative viability: 0.425
HCC-366; first compound 20 µM
  relative viability: 0.0362
HOP-62; first compound 0.2 µM
  relative viability: 0.927
HOP-62; first compound 0.6325 µM
  relative viability: 0.914
HOP-62; first compound 2 µM
  relative viability: 0.642
HOP-62; first compound 6.325 µM
  relative viability: 0.888
HOP-62; first compound 20 µM
  relative viability: 0.0803
LK-2; first compound 0.2 µM
  relative viability: 0.234
LK-2; first compound 0.6325 µM
  relative viability: 0.233
LK-2; first compound 6.325 µM
  relative viability: 0.227
LK-2; first compound 20 µM
  relative viability: 0.229
NCI-H1437; first compound 0.2 µM
  relative viability: 0.888
NCI-H1437; first compound 0.6325 µM
  relative viability: 0.839
NCI-H1437; first compound 2 µM
  relative viability: 0.864
NCI-H1437; first compound 6.325 µM
  relative viability: 0.559
NCI-H1437; first compound 20 µM
  relative viability: 0.631
NCI-H1563; first compound 0.2 µM
  relative viability: 1
NCI-H1563; first compound 0.6325 µM
  relative viability: 0.891
NCI-H1563; first compound 2 µM
  relative viability: 0.749
NCI-H1563; first compound 6.325 µM
  relative viability: 0.784
NCI-H1563; first compound 20 µM
  relative viability: 0.577
NCI-H1650; first compound 0.2 µM
  relative viability: 1.04
NCI-H1650; first compound 0.6325 µM
  relative viability: 0.931
NCI-H1650; first compound 2 µM
  relative viability: 0.495
NCI-H1650; first compound 6.325 µM
  relative viability: 0.47
NCI-H1650; first compound 20 µM
  relative viability: 0.156
NCI-H1651; first compound 0.2 µM
  relative viability: 0.921
NCI-H1651; first compound 0.6325 µM
  relative viability: 0.878
NCI-H1651; first compound 2 µM
  relative viability: 0.827
NCI-H1651; first compound 6.325 µM
  relative viability: 0.832
NCI-H1651; first compound 20 µM
  relative viability: 0.584
NCI-H1734; first compound 0.2 µM
  relative viability: 0.657
NCI-H1734; first compound 0.6325 µM
  relative viability: 0.677
NCI-H1734; first compound 2 µM
  relative viability: 0.596
NCI-H1734; first compound 6.325 µM
  relative viability: 0.379
NCI-H1734; first compound 20 µM
  relative viability: 0.242
NCI-H1755; first compound 0.2 µM
  relative viability: 0.861
NCI-H1755; first compound 0.6325 µM
  relative viability: 0.794
NCI-H1755; first compound 2 µM
  relative viability: 0.803
NCI-H1755; first compound 6.325 µM
  relative viability: 0.68
NCI-H1755; first compound 20 µM
  relative viability: 0.179
NCI-H2347; first compound 0.2 µM
  relative viability: 0.584
NCI-H2347; first compound 0.6325 µM
  relative viability: 0.548
NCI-H2347; first compound 2 µM
  relative viability: 0.677
NCI-H2347; first compound 6.325 µM
  relative viability: 0.577
NCI-H2347; first compound 20 µM
  relative viability: 0.4
NCI-H3122; first compound 0.2 µM
  relative viability: 0.272
NCI-H3122; first compound 0.6325 µM
  relative viability: 0.251
NCI-H3122; first compound 2 µM
  relative viability: 0.32
NCI-H3122; first compound 6.325 µM
  relative viability: 0.294
NCI-H3122; first compound 20 µM
  relative viability: 0.204
NCI-H441; first compound 0.2 µM
  relative viability: 0.835
NCI-H441; first compound 0.6325 µM
  relative viability: 0.692
NCI-H441; first compound 2 µM
  relative viability: 0.774
NCI-H441; first compound 6.325 µM
  relative viability: 0.433
NCI-H441; first compound 20 µM
  relative viability: 0.222
NCI-H596; first compound 0.2 µM
  relative viability: 0.965
NCI-H596; first compound 0.6325 µM
  relative viability: 1.11
NCI-H596; first compound 2 µM
  relative viability: 0.832
NCI-H596; first compound 6.325 µM
  relative viability: 0.921
NCI-H596; first compound 20 µM
  relative viability: 0.741
NCI-H727; first compound 0.2 µM
  relative viability: 0.836
NCI-H727; first compound 0.6325 µM
  relative viability: 0.81
NCI-H727; first compound 2 µM
  relative viability: 0.795
NCI-H727; first compound 6.325 µM
  relative viability: 0.534
NCI-H727; first compound 20 µM
  relative viability: 0.349
PC-3 [JPC-3]; first compound 0.2 µM
  relative viability: 0.989
PC-3 [JPC-3]; first compound 0.6325 µM
  relative viability: 1
PC-3 [JPC-3]; first compound 2 µM
  relative viability: 1
PC-3 [JPC-3]; first compound 6.325 µM
  relative viability: 0.768
PC-3 [JPC-3]; first compound 20 µM
  relative viability: 0.451
RERF-LC-KJ; first compound 0.2 µM
  relative viability: 0.787
RERF-LC-KJ; first compound 0.6325 µM
  relative viability: 0.836
RERF-LC-KJ; first compound 2 µM
  relative viability: 0.708
RERF-LC-KJ; first compound 6.325 µM
  relative viability: 0.499
RERF-LC-KJ; first compound 20 µM
  relative viability: 0.267
SK-LU-1; first compound 0.2 µM
  relative viability: 1.02
SK-LU-1; first compound 0.6325 µM
  relative viability: 0.895
SK-LU-1; first compound 2 µM
  relative viability: 1.07
SK-LU-1; first compound 6.325 µM
  relative viability: 0.815
SK-LU-1; first compound 20 µM
  relative viability: 0.843
UMC-11; first compound 0.2 µM
  relative viability: 0.544
UMC-11; first compound 0.6325 µM
  relative viability: 0.565
UMC-11; first compound 2 µM
  relative viability: 0.649
UMC-11; first compound 6.325 µM
  relative viability: 0.349
UMC-11; first compound 20 µM
  relative viability: 0.184
